In experiment [1] the test system is Saccharomyces cerevisiae NBRC 2260/ΔPDC1::LDH strain. As to the kind of experiment: Acetone resistance test. Conditions: strain NBRC 2260 ΔPDC1::LDH; 4% (v/v) acetone in YPAD medium, 30° C., 40 hours; absorbance at 600 nm with acetone ÷ without ×100. It counts as cell-based. The protocol: (§1) To 5 ml of YPAD medium, 200 μL of acetone was added so that the final concentration became 4% (v/v). […] Absorbance at 600 nm of YPAD medium (with acetone)÷absorbance at 600 nm of YPAD medium×100 (7)

Experiment [2] has as its system Candida methanosorbosa BCRC 21489 strain. The experiment is described as follows: Acetone resistance test. The experiment is classed as cell-based. Particulars: strain BCRC 21489; 4% (v/v) acetone in YPAD medium, 30° C., 40 hours; absorbance at 600 nm with acetone ÷ without ×100. The protocol: as §1
For experiment [3], the system named is Candida tropicalis NBRC 199 strain. The experiment is described as follows: Acetone resistance test. The experiment is classed as cell-based. Particulars: strain NBRC 199; 4% (v/v) acetone in YPAD medium, 30° C., 40 hours; absorbance at 600 nm with acetone ÷ without ×100. The protocol:
as §1

Experiment [4] relates to Saccharomyces cerevisiae NBRC 10505/ΔPDC1::LDH strain. The experiment is described as follows: Acetone resistance test. It counts as cell-based. Conditions: strain NBRC 10505 ΔPDC1::LDH; 4% (v/v) acetone in YPAD medium, 30° C., 40 hours; absorbance at 600 nm with acetone ÷ without ×100. As for the experimental part:
as §1

Experiment [5] has as its system Pichia stipitis BCRC 21777 strain. As to the kind of experiment: Acetone resistance test. Particulars: strain BCRC 21777; 4% (v/v) acetone in YPAD medium, 30° C., 40 hours; absorbance at 600 nm with acetone ÷ without ×100. The experiment is classed as cell-based. As for the experimental part: as §1
For experiment [6], the system named is Saccharomyces cerevisiae NITE BP-1089 strain. The experiment is described as follows: Acetone resistance test. It counts as cell-based. Conditions: strain BP-1089; 4% (v/v) acetone in YPAD medium, 30° C., 40 hours; absorbance at 600 nm with acetone ÷ without ×100. The protocol:
as §1

The test system of experiment [7] is Candida boidinii BCRC 22528 strain. The experiment is described as follows: Acetone resistance test. Conditions: strain BCRC 22528; 4% (v/v) acetone in YPAD medium, 30° C., 40 hours; absorbance at 600 nm with acetone ÷ without ×100. The experiment is classed as cell-based. The protocol:
as §1

The test system of experiment [8] is Kluyveromyces marxianus NBRC 272 strain. As to the kind of experiment: Acetone resistance test. The experiment is classed as cell-based. Conditions: strain NBRC 272; 4% (v/v) acetone in YPAD medium, 30° C., 40 hours; absorbance at 600 nm with acetone ÷ without ×100. As for the experimental part:
as §1

Experiment [9] relates to Saccharomyces cerevisiae NITE BP-1088 strain. As to the kind of experiment: Acetone resistance test. The experiment is classed as cell-based. Particulars: strain BP-1088; 4% (v/v) acetone in YPAD medium, 30° C., 40 hours; absorbance at 600 nm with acetone ÷ without ×100. The protocol: as §1
The test system of experiment [10] is Lindnera fabianii NBRC 1253 strain. The experiment is described as follows: Acetone resistance test. It counts as cell-based. Particulars: strain NBRC 1253; 4% (v/v) acetone in YPAD medium, 30° C., 40 hours; absorbance at 600 nm with acetone ÷ without ×100. The protocol: as §1
For experiment [11], the system named is Candida pignaliae NBRC 10307 strain. The experiment is described as follows: Acetone resistance test. Particulars: strain NBRC 10307; 4% (v/v) acetone in YPAD medium, 30° C., 40 hours; absorbance at 600 nm with acetone ÷ without ×100. The experiment is classed as cell-based. The protocol: as §1
The subject of experiment [12] is Arxula adeninivorans NBRC 10858 strain. As to the kind of experiment: Acetone resistance test. Conditions: strain NBRC 10858; 4% (v/v) acetone in YPAD medium, 30° C., 40 hours; absorbance at 600 nm with acetone ÷ without ×100. The experiment is classed as cell-based. As for the experimental part: as §1
The test system of experiment [13] is Saccharomyces cerevisiae NITE BP-1087 strain. As to the kind of experiment: Acetone resistance test. The experiment is classed as cell-based. Conditions: strain BP-1087; 4% (v/v) acetone in YPAD medium, 30° C., 40 hours; absorbance at 600 nm with acetone ÷ without ×100. As for the experimental part:
as §1

Experiment [14] relates to Saccharomyces cerevisiae NBRC 2260 strain. As to the kind of experiment: Acetone resistance test. It counts as cell-based. Particulars: strain NBRC 2260; 4% (v/v) acetone in YPAD medium, 30° C., 40 hours; absorbance at 600 nm with acetone ÷ without ×100. As for the experimental part: as §1
Experiment [15] relates to Saccharomyces cerevisiae NBRC 10505 strain. The experiment is described as follows: Acetone resistance test. The experiment is classed as cell-based. Particulars: strain NBRC 10505; 4% (v/v) acetone in YPAD medium, 30° C., 40 hours; absorbance at 600 nm with acetone ÷ without ×100. The protocol: as §1
Experiment [16] deals with Pichia mexicana NBRC 10320 strain. The experiment is described as follows: Acetone resistance test. Particulars: strain NBRC 10320; 4% (v/v) acetone in YPAD medium, 30° C., 40 hours; absorbance at 600 nm with acetone ÷ without ×100. It counts as cell-based. As for the experimental part: as §1
As a result, the Pichia mexicana NBRC 10320 strain was found not to be a vanillin-resistant yeast, but found to be an acetone-resistant yeast.

The subject of experiment [17] is Saccharomyces cerevisiae NBRC 2260/ΔPDC1::LDH strain. Conditions: strain NBRC 2260 ΔPDC1::LDH; vanillin 1 g/L in YPAD medium, 30° C., 40 hours; absorbance at 600 nm with vanillin ÷ without ×100.
Method: (§2) The Saccharomyces cerevisiae NBRC 10505 strain was inoculated using a platinum loop to 20-ml test tubes each containing 5 ml of YPAD medium, and then cultured with shaking at 30° C. overnight (preculture). The YPAD medium had the following composition: 1% (w/v) yeast extract, 2% (w/v) bactopeptone, 2% (w/v) glucose, and 0.04% (w/v) adenine. A vanillin concentrate (200 g/L in DMSO) was prepared, and 25 μL of the vanillin concentrate was added to 5 ml of YPAD medium so that the final concentration became 1 g/L. To provide vanillin-free YPAD medium, 25 μl of DMSO alone was added to YPAD medium. The preculture liquid was inoculated to the YPAD medium (with vanillin) and the vanillin-free YPAD medium such that OD became 0.2, and culture was performed at 30° C. for 40 hours. After the culture, OD 600 nm of the culture liquid of each strain was measured, and a value was calculated according to Equation (6). Absorbance at 600 nm of YPAD medium (with vanillin)÷absorbance at 600 nm of YPAD medium×100 (6).
Experiment [18] deals with Saccharomyces cerevisiae NBRC 2260 strain. The experiment is described as follows: Vanillin resistance test. The experiment is classed as cell-based. Particulars: strain NBRC 2260; vanillin 1 g/L in YPAD medium, 30° C., 40 hours; absorbance at 600 nm with vanillin ÷ without ×100.
Method: as §2
The test system of experiment [19] is Candida methanosorbosa BCRC 21489 strain. As to the kind of experiment: Vanillin resistance test. The experiment is classed as cell-based. Conditions: strain BCRC 21489; vanillin 1 g/L in YPAD medium, 30° C., 40 hours; absorbance at 600 nm with vanillin ÷ without ×100.
Method: The Candida methanosorbosa BCRC 21489 strain was tested by the same method as in Reference Example 5, and values were calculated according to Equation (6) and Equation (7) (Table 1).
Experiment [20] relates to Pichia stipitis BCRC 21777 strain. As to the kind of experiment: Vanillin resistance test. The experiment is classed as cell-based. Particulars: strain BCRC 21777; vanillin 1 g/L in YPAD medium, 30° C., 40 hours; absorbance at 600 nm with vanillin ÷ without ×100.
Method: (§3) The YPAD medium had the following composition: 1% (w/v) yeast extract, 2% (w/v) bactopeptone, 2% (w/v) glucose, and 0.04% (w/v) adenine. A vanillin concentrate (200 g/L in DMSO) was prepared, and 25 μL of the vanillin concentrate was added to 5 ml of YPAD medium so that the final concentration became 1 g/L. To provide vanillin-free YPAD medium, 25 μl of DMSO alone was added to YPAD medium. The preculture liquid was inoculated to the YPAD medium (with vanillin) and the vanillin-free YPAD medium such that OD became 0.2, and culture was performed at 30° C. for 40 hours. After the culture, OD 600 nm of the culture liquid of each strain was measured, and a value was calculated according to Equation (6). Absorbance at 600 nm of YPAD medium (with vanillin)÷absorbance at 600 nm of YPAD medium×100 (6).
The Pichia stipitis BCRC 21777 strain was tested by the same method as in Reference Example 5, and values were calculated according to Equation (6) and Equation (7) (Table 1).
Experiment [21] concerns Candida boidinii BCRC 22528 strain. The experiment is described as follows: Vanillin resistance test. It counts as cell-based. Particulars: strain BCRC 22528; vanillin 1 g/L in YPAD medium, 30° C., 40 hours; absorbance at 600 nm with vanillin ÷ without ×100.
Method: The Candida boidinii BCRC 22528 strain was tested by the same method as in Reference Example 5, and values were calculated according to Equation (6) and Equation (7) (Table 1).
The subject of experiment [22] is Candida tropicalis NBRC 199 strain. The experiment is described as follows: Vanillin resistance test. The experiment is classed as cell-based. Particulars: strain NBRC 199; vanillin 1 g/L in YPAD medium, 30° C., 40 hours; absorbance at 600 nm with vanillin ÷ without ×100.
For experiment [23], the system named is Pichia mexicana NBRC 10320 strain. The experiment is described as follows: Vanillin resistance test. It counts as cell-based. Particulars: strain NBRC 10320; vanillin 1 g/L in YPAD medium, 30° C., 40 hours; absorbance at 600 nm with vanillin ÷ without ×100.
Method: The Pichia mexicana NBRC 10320 strain was tested by the same method as in Reference Example 5, and values were calculated according to Equation (6) and Equation (7) (Table 1).
Experiment [24] relates to Candida pignaliae NBRC 10307 strain. The experiment is described as follows: Vanillin resistance test. The experiment is classed as cell-based. Particulars: strain NBRC 10307; vanillin 1 g/L in YPAD medium, 30° C., 40 hours; absorbance at 600 nm with vanillin ÷ without ×100.
Method: as §3
Experiment [25] concerns Lindnera fabianii NBRC 1253 strain. The experiment is described as follows: Vanillin resistance test. It counts as cell-based. Particulars: strain NBRC 1253; vanillin 1 g/L in YPAD medium, 30° C., 40 hours; absorbance at 600 nm with vanillin ÷ without ×100.
Method: The Lindnera fabianii NBRC 1253 strain was tested by the same method as in Reference Example 5, and a value was calculated according to Equation (6) and Equation (7) (Table 1).
Experiment [26] relates to Saccharomyces cerevisiae NITE BP-1087 strain. As to the kind of experiment: Vanillin resistance test. It counts as cell-based. Conditions: strain BP-1087; vanillin 1 g/L in YPAD medium, 30° C., 40 hours; absorbance at 600 nm with vanillin ÷ without ×100.
Method: as §2
Experiment [27] concerns Saccharomyces cerevisiae NBRC 10505/ΔPDC1::LDH strain. Conditions: strain NBRC 10505 ΔPDC1::LDH; vanillin 1 g/L in YPAD medium, 30° C., 40 hours; absorbance at 600 nm with vanillin ÷ without ×100.
Method: as §2
Experiment [28] deals with Saccharomyces cerevisiae NBRC 10505 strain. The experiment is described as follows: Vanillin resistance test. It counts as cell-based. Conditions: strain NBRC 10505; vanillin 1 g/L in YPAD medium, 30° C., 40 hours; absorbance at 600 nm with vanillin ÷ without ×100.
Method: as §2
The test system of experiment [29] is Kluyveromyces marxianus NBRC 272 strain. The experiment is described as follows: Vanillin resistance test. Conditions: strain NBRC 272; vanillin 1 g/L in YPAD medium, 30° C., 40 hours; absorbance at 600 nm with vanillin ÷ without ×100. It counts as cell-based.
Method: as §3
The Kluyveromyces marxianus NBRC 272 strain was tested by the same method as in Reference Example 5, and values were calculated according to Equation (6) and Equation (7) (Table 1).
The test system of experiment [30] is Saccharomyces cerevisiae NITE BP-1089 strain. As to the kind of experiment: Vanillin resistance test. It counts as cell-based. Particulars: strain BP-1089; vanillin 1 g/L in YPAD medium, 30° C., 40 hours; absorbance at 600 nm with vanillin ÷ without ×100.
Method: as §2
Experiment [31] has as its system Arxula adeninivorans NBRC 10858 strain. As to the kind of experiment: Vanillin resistance test. The experiment is classed as cell-based. Particulars: strain NBRC 10858; vanillin 1 g/L in YPAD medium, 30° C., 40 hours; absorbance at 600 nm with vanillin ÷ without ×100.
Method: as §2
The Arxula adeninivorans NBRC 10858 strain was tested by the same method as in Reference Example 5, and values were calculated according to Equation (6) and Equation (7) (Table 1).
For experiment [32], the system named is Saccharomyces cerevisiae NITE BP-1088 strain. As to the kind of experiment: Vanillin resistance test. It counts as cell-based. Conditions: strain BP-1088; vanillin 1 g/L in YPAD medium, 30° C., 40 hours; absorbance at 600 nm with vanillin ÷ without ×100.
Method: as §2

Regarding `CC(C)=O` [Acetone, acetone], the “Acetone resistance test result” value is recorded as 84 in experiment [1]; 74 in [2]; 100 in [3]; 8 in experiment [4]; 1.8 in experiment [5]; 7.2 in experiment [6]. For the same compound, the “Acetone resistance test result” value is 49 in experiment [7]; 87 in [8]; 7.5 in experiment [9]; 111 in experiment [10]; 1.3 in experiment [11]; 22 in [12]. The “Acetone resistance test result” value turned out to be 10 in experiment [13], 86 in [14], 8.8 in [15] and 100 in [16].
Take `COc1cc(C=O)ccc1O` [Vanillin, vanillin]: the “Vanillin resistance test result” value in [17] is listed as 82; in experiment [18], 83; in [19], 54; in experiment [20] it was 22; in experiment [21] it was 66; in [22], 82. The “Vanillin resistance test result” value in experiment [23] came out at 11; in [24], 1.9; in [25], 95; in experiment [26], 9.2; in experiment [27], 6.2; in experiment [28], 6.8. In addition, the “Vanillin resistance test result” value in experiment [29] was 100; in [30] it was 7.8; in [31] it was 84; in experiment [32] it was 8.5.

The values above are taken from US10927389B2, “Method of producing chemical substance by continuous fermentation” (Toray Industries, Inc., priority 2014, dated 2021).
